Measurements taken from US10710978B2, “STK4 inhibitors for treatment of hematologic malignancies” (Dana-Farber Cancer Institute, Inc., priority 2015, dated 2020).
pIC50: −log10 of the molar value. Like-named read-outs stand apart in the source and are kept apart here.

Assays:
STK4 (MST1) = STK4 (MST1) (Homo sapiens (Human), UniProt Q13043); assay: Z-lyte biochemical IC50 assay (Invitrogen); details: ATP concentration matched the Km
Description: (§1) STK4 (MST1), STK3 (MST2); STK24 (MST3) and MST4 Assays
(§2) Biochemical IC50s were measured at Invitrogen using Z-lyte technology. Briefly, for STK4, the 2×STK4 (MST1)/Ser/Thr 07 mixture was prepared in 50 mM HEPES pH 7.5, 0.01% BRIJ35, 10 mM MgCl2, 1 mM EGTA. The final 10 μL Kinase Reaction consisted of 6.25-160 ng STK4 (MST1) and 2 μM Ser/Thr 07 in 50 mM HEPES pH 7.5, 0.01% BRIJ-35, 10 mM MgCl2, 1 mM EGTA. After the 1 hour Kinase Reaction incubation, 5 μL of a 1:100000 dilution of Development Reagent A was added. Compounds were screened in a 10 point titration with 3-fold serial dilutions starting at a concentration of 10 μM. The biochemical IC50s against other STK family members were measured similarly. The ATP concentration used matched the Km for each kinase.

STK24 (MST3) = STK24 (MST3) (Homo sapiens (Human), UniProt Q9Y6E0); assay: Z-lyte biochemical IC50 assay (Invitrogen); details: ATP concentration matched the Km
Description: as §1, §2

PKCz = PKCz (Homo sapiens (Human), UniProt Q05513); assay: KiNativ assay; format: binding; details: H929 live cell
Description: (§3) Biochemical IC50s of the compounds of the present disclosure against various kinases were measured in a KiNativ assay. Compounds were screened in duplicate at 10 μM in H929 live cell. IC50 was measured via Mass spectroscopy (MS).

SRPK2 = SRPK2 (Homo sapiens (Human), UniProt P78362); assay: KiNativ assay; format: binding; details: H929 live cell
Description: as §3

IKKe, TBK1 = assay: KiNativ assay; format: binding; details: H929 live cell
Description: as §3

FYN, SRC, YES = assay: KiNativ assay; format: binding; details: H929 live cell
Description: as §3

PHKg2 = PHKg2 (Homo sapiens (Human), UniProt P15735); assay: KiNativ assay; format: binding; details: H929 live cell
Description: as §3

MARK2 = MARK2 (Homo sapiens (Human), UniProt Q7KZI7); assay: KiNativ assay; format: binding; details: H929 live cell
Description: as §3

MST4 = assay: KiNativ assay; format: binding; details: H929 live cell
Description: as §3

PKD3 = PKD3 (Homo sapiens (Human), UniProt O94806); assay: KiNativ assay; format: binding; details: H929 live cell
PKD3, sequence (O94806 whole entry): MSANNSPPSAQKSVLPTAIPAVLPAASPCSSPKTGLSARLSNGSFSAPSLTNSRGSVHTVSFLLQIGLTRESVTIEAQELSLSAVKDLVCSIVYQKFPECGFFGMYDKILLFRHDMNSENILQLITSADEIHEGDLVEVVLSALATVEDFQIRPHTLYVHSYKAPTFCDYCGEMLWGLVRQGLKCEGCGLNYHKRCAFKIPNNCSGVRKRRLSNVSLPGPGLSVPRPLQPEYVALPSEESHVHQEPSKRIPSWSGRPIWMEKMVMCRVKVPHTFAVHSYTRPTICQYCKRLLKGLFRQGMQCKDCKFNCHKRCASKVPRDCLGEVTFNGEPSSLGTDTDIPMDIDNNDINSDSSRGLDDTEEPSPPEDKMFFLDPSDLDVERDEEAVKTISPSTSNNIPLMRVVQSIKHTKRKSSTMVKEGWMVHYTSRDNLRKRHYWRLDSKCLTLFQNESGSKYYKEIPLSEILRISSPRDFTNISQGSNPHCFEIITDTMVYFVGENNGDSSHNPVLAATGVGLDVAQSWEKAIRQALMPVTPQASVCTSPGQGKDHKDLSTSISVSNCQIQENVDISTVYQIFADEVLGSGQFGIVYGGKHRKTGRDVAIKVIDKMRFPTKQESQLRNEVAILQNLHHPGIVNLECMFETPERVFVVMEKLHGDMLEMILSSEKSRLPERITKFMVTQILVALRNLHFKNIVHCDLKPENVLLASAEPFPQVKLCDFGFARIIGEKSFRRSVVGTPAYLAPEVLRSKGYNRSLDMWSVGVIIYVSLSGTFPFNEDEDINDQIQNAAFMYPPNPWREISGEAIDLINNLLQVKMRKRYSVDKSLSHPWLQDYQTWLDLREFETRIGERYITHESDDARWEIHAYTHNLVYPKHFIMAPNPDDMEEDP
Description: as §3

PIP4K2A = PIP4K2A (Homo sapiens (Human), UniProt P48426); assay: KiNativ assay; format: binding; details: H929 live cell
PIP4K2A, sequence (P48426 whole entry): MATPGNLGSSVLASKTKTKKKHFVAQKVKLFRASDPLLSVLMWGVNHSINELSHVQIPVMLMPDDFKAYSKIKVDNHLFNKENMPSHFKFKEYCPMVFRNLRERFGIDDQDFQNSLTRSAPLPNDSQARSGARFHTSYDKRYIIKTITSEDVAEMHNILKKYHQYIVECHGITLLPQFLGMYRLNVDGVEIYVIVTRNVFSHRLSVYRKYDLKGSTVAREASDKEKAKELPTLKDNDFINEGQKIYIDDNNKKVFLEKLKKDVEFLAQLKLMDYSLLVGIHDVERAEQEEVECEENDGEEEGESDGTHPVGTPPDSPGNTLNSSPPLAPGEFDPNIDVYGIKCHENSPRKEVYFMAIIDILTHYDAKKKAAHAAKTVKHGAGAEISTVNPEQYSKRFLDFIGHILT
Description: as §3

CaMKK2 = CaMKK2 (Homo sapiens (Human), UniProt Q96RR4); assay: KiNativ assay; format: binding; details: H929 live cell
CaMKK2, sequence (Q96RR4 whole entry): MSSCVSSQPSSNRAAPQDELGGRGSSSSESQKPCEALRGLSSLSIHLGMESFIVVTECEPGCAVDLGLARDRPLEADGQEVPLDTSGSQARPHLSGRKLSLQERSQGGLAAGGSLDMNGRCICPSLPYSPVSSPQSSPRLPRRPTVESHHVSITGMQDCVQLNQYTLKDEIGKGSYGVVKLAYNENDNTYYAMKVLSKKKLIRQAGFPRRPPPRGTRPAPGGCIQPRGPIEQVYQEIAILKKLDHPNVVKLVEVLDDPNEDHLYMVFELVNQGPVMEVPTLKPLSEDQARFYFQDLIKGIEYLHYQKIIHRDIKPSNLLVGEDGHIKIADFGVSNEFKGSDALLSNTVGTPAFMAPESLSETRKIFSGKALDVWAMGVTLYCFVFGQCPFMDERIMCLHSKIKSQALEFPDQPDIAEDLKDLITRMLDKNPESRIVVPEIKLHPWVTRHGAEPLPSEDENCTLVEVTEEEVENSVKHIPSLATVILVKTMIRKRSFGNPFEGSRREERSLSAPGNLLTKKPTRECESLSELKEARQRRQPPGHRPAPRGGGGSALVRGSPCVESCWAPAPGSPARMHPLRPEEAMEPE
Description: as §3

NEK8 = NEK8 (Homo sapiens (Human), UniProt Q86SG6); assay: KiNativ assay; format: binding; details: H929 live cell
Description: as §3

Wnk1, Wnk2, Wnk3 = assay: KiNativ assay; format: binding; details: H929 live cell
Description: as §3

[1] = test system: RSK1 domain1, RSK2 domain1, RSK3 domain1; assay: KiNativ assay; format: binding; details: H929 live cell
Description: as §3

RSK2 domain1 = RSK2 domain1 (Homo sapiens (Human), UniProt P51812); assay: KiNativ assay; format: binding; details: H929 live cell
Description: as §3

SMG1 = SMG1 (Homo sapiens (Human), UniProt Q96Q15); assay: KiNativ assay; format: binding; details: H929 live cell
Description: as §3

TLK1 = TLK1 (Homo sapiens (Human), UniProt Q9UKI8); assay: KiNativ assay; format: binding; details: H929 live cell
Description: as §3

TLK2 = TLK2 (Homo sapiens (Human), UniProt Q86UE8); assay: KiNativ assay; format: binding; details: H929 live cell
TLK2, sequence (Q86UE8 whole entry): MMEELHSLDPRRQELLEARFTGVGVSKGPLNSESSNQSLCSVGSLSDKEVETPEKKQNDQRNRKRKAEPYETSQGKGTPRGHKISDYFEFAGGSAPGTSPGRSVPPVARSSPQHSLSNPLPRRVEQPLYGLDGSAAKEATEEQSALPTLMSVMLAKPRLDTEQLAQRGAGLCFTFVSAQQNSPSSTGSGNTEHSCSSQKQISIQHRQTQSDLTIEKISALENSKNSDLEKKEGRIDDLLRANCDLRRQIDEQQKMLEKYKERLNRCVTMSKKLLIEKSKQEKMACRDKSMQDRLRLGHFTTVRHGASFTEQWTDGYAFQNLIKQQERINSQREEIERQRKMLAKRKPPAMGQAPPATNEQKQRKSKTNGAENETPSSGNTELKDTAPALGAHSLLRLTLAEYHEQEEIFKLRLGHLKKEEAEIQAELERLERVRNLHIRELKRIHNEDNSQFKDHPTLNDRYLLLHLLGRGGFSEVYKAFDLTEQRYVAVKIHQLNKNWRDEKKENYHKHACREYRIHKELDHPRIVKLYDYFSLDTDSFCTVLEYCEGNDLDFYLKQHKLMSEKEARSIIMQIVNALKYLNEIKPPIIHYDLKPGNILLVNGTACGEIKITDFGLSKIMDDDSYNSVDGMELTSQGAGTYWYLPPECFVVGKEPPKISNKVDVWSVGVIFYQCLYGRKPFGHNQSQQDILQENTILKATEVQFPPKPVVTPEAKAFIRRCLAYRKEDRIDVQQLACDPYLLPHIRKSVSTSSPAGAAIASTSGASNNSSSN
Description: as §3

MAP2K6 = MAP2K6 (Homo sapiens (Human), UniProt P52564); assay: KiNativ assay; format: binding; details: H929 live cell
MAP2K6, sequence (P52564 whole entry): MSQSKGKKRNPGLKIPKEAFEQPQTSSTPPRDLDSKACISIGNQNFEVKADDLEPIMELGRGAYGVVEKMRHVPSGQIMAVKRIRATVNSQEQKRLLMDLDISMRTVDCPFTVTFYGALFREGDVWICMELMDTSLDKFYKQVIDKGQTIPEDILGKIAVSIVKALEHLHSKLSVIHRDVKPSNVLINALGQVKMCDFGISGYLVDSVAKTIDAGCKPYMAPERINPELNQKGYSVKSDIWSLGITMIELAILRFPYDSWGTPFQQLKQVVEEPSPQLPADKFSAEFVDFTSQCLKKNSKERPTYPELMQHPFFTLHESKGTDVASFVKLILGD
Description: as §3

MLKL = MLKL (Homo sapiens (Human), UniProt Q8NB16); assay: KiNativ assay; format: binding; details: H929 live cell
MLKL, sequence (Q8NB16 whole entry): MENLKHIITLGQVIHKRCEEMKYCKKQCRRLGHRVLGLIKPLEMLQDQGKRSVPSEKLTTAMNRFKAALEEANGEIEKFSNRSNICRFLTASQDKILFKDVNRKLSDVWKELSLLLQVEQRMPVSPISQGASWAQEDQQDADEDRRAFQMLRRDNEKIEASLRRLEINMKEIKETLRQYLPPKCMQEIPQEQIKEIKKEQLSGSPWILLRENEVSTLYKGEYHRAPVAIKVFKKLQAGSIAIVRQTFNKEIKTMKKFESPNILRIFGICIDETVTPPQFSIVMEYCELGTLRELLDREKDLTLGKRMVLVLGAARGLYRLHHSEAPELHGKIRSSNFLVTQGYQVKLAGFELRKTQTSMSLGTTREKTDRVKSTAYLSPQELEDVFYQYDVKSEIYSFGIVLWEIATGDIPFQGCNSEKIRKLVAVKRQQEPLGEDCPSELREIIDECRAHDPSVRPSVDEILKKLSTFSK
Description: as §3

SGK3 = SGK3 (Homo sapiens (Human), UniProt Q96BR1); assay: KiNativ assay; format: binding; details: H929 live cell
Description: as §3

RSKL1 = RSKL1 (Homo sapiens (Human), UniProt Q96S38); assay: KiNativ assay; format: binding; details: H929 live cell
RSKL1, sequence (Q96S38 whole entry): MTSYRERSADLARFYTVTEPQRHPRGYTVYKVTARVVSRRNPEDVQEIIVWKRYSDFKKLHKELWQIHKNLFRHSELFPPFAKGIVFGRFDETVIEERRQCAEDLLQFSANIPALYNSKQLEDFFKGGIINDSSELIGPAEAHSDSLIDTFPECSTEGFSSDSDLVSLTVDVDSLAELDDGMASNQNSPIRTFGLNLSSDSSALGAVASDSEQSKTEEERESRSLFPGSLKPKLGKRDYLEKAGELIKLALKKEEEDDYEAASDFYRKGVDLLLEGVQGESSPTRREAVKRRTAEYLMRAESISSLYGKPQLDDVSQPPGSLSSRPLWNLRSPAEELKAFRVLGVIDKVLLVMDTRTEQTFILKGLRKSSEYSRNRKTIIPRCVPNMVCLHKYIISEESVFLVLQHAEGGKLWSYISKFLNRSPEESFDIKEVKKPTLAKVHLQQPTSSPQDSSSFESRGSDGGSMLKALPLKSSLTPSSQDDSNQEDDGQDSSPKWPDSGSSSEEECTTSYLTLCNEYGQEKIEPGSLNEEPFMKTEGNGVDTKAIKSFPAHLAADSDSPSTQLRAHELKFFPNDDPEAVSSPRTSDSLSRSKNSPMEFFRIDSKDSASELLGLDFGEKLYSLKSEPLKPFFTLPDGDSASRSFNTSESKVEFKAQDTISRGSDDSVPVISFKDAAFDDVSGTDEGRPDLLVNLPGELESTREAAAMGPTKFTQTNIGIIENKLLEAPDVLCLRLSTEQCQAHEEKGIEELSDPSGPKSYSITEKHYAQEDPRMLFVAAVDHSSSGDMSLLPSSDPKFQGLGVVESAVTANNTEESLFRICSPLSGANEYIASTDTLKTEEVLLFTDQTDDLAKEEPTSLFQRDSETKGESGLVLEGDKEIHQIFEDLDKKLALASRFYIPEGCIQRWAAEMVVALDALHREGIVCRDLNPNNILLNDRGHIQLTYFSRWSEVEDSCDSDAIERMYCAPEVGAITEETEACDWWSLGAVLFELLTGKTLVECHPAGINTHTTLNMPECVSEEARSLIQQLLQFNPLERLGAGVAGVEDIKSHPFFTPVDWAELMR
Description: as §3

IKKa = IKKa (Homo sapiens (Human), UniProt O15111); assay: KiNativ assay; format: binding; details: H929 live cell
Description: as §3

CK1g3 = CK1g3 (Homo sapiens (Human), UniProt Q9Y6M4); assay: KiNativ assay; format: binding; details: H929 live cell
CK1g3, sequence (Q9Y6M4 whole entry): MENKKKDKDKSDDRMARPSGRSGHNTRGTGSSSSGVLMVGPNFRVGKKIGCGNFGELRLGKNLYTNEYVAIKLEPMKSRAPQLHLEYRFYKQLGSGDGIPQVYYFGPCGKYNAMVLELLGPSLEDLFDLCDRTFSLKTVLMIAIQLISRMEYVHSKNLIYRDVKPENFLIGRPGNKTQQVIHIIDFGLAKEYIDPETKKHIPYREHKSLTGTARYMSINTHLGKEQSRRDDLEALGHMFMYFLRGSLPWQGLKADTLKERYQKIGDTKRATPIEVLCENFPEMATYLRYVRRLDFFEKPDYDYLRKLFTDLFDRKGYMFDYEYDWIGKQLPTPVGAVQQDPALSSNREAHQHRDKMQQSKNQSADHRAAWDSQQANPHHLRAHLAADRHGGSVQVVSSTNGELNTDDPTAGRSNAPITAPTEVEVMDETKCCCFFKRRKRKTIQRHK
Description: as §3

EphB2 = EphB2 (Homo sapiens (Human), UniProt P29323); assay: KiNativ assay; format: binding; details: H929 live cell
Description: as §3

AurA, AurB, AurC = assay: KiNativ assay; format: binding; details: H929 live cell
Description: as §3

RSK1 domain1 = RSK1 domain1 (Homo sapiens (Human), UniProt Q15418); assay: KiNativ assay; format: binding; details: H929 live cell
Description: as §3

TAO1, TAO3 = assay: KiNativ assay; format: binding; details: H929 live cell
Description: as §3

With `Nc1ncc(-c2cccc3ncsc23)cc1-c1ccc2c(c1)CCNC2=O` [Compound I-13, 6-(2-amino-5-(benzo[d]thiazol-7-yl)pyridin-3-yl)-3,4-dihydroisoquinolin-1(2H)-one] the pIC50 (STK4 (MST1)) was over 7.40, the pIC50 (STK24 (MST3)) was under 6.05 and the inhibition at 10 µM (PKCz; read-out: % inhibition (range)) was 0%. It also gave an inhibition at 10 µM (PKCz; read-out: inhibition (10 μM)) of 15.5%, an inhibition at 10 µM (SRPK2; read-out: % inhibition (range)) of 0% and an inhibition at 10 µM (SRPK2; read-out: inhibition (10 μM)) of -14%. For the same compound, the “% inhibition (range)” value (IKKe, TBK1; 10 μM) was 0.0%, the “inhibition (10 μM)” value (IKKe, TBK1) was −9.9% and the “% inhibition (range)” value (FYN, SRC, YES; 10 μM) was 0.0%. For the same compound, the “inhibition (10 μM)” value (FYN, SRC, YES) was 0.3%, the inhibition at 10 µM (PHKg2; read-out: % inhibition (range)) was 0% and the inhibition at 10 µM (PHKg2; read-out: inhibition (10 μM)) was -27.5%. The inhibition at 10 µM (MARK2; read-out: % inhibition (range)) was 0%, the inhibition at 10 µM (MARK2; read-out: inhibition (10 μM)) was 32.3% and the “% inhibition (range)” value (MST4; 10 μM) was 0.0%. The “inhibition (10 μM)” value (MST4) was 29.3%, the inhibition at 10 µM (PKD3; read-out: % inhibition (range)) was 50 to 75% and the inhibition at 10 µM (PKD3; read-out: inhibition (10 μM)) was 69.4%. It also gave an inhibition at 10 µM (PIP4K2A; read-out: % inhibition (range)) of 0%, an inhibition at 10 µM (PIP4K2A; read-out: inhibition (10 μM)) of 2.3% and an inhibition at 10 µM (CaMKK2; read-out: % inhibition (range)) of 50 to 75%. It also gave an inhibition at 10 µM (CaMKK2; read-out: inhibition (10 μM)) of 74.9%, an inhibition at 10 µM (NEK8; read-out: % inhibition (range)) of 0% and an inhibition at 10 µM (NEK8; read-out: inhibition (10 μM)) of 10.6%. The “% inhibition (range)” value (Wnk1, Wnk2, Wnk3; 10 μM) was 0.0%, the “inhibition (10 μM)” value (Wnk1, Wnk2, Wnk3) was −69.3% and the “% inhibition (range)” value ([1]; 10 μM) was 0.0%. For the same compound, the “inhibition (10 μM)” value [1] was 13.1%, the inhibition at 10 µM (RSK2 domain1; read-out: % inhibition (range)) was 0% and the inhibition at 10 µM (RSK2 domain1; read-out: inhibition (10 μM)) was 19.2%. The inhibition at 10 µM (SMG1; read-out: % inhibition (range)) was 50 to 75%, the inhibition at 10 µM (SMG1; read-out: inhibition (10 μM)) was 61% and the inhibition at 10 µM (TLK1; read-out: % inhibition (range)) was 0%. The inhibition at 10 µM (TLK1; read-out: inhibition (10 μM)) was 8.6%, the inhibition at 10 µM (TLK2; read-out: % inhibition (range)) was 0% and the inhibition at 10 µM (TLK2; read-out: inhibition (10 μM)) was 12.6%. For the same compound, the inhibition at 10 µM (MAP2K6; read-out: % inhibition (range)) was 0%, the inhibition at 10 µM (MAP2K6; read-out: inhibition (10 μM)) was 4.3% and the inhibition at 10 µM (MLKL; read-out: % inhibition (range)) was 0%. It also gave an inhibition at 10 µM (MLKL; read-out: inhibition (10 μM)) of 15.2%, an inhibition at 10 µM (SGK3; read-out: % inhibition (range)) of 0% and an inhibition at 10 µM (SGK3; read-out: inhibition (10 μM)) of 13.1%. It also gave an inhibition at 10 µM (RSKL1; read-out: % inhibition (range)) of 0%, an inhibition at 10 µM (RSKL1; read-out: inhibition (10 μM)) of 1.6% and an inhibition at 10 µM (IKKa; read-out: % inhibition (range)) of 0%. The inhibition at 10 µM (IKKa; read-out: inhibition (10 μM)) was 2.6%, the inhibition at 10 µM (CK1g3; read-out: % inhibition (range)) was over 90% and the inhibition at 10 µM (CK1g3; read-out: inhibition (10 μM)) was 90.4%. For the same compound, the inhibition at 10 µM (EphB2; read-out: % inhibition (range)) was 0%, the inhibition at 10 µM (EphB2; read-out: inhibition (10 μM)) was 22.1% and the “% inhibition (range)” value (AurA, AurB, AurC; 10 μM) was 0.0%. For the same compound, the “inhibition (10 μM)” value (AurA, AurB, AurC) was 17.7%, the inhibition at 10 µM (RSK1 domain1; read-out: % inhibition (range)) was 0% and the inhibition at 10 µM (RSK1 domain1; read-out: inhibition (10 μM)) was 3.3%. For the same compound, the “% inhibition (range)” value (TAO1, TAO3; 10 μM) was 0.0% and the “inhibition (10 μM)” value (TAO1, TAO3) was 10.3%.
